Here are results for one molecule from patent publication US9434701B2, “Aminoquinoxaline derivatives for treatment of neurodegenerative diseases” (CENTRE NATIONAL DE LA RECHERCHE SCIENTIFIQUE (CNRS), priority 2011, dated 2016).

For series [1], the system named is fetal dopaminergic neurons (TH+) in culture. The series can be described thus: dopaminergic neuron spontaneous degeneration model, second protocol (Mourlevat et al.), TH+ neuron count after 10 days. The note with it: Rattus norvegicus, 240 h, effect at 100 μM, 10 days of culture, read-out: TH+ neurons in % of control ± Std. Err. Type of series: cell-based. On the procedure:
This second protocol is described in the article by Mourlevat, P. P. Michel et al. Molecular Pharmacology 2003, 64:578-586 (“Prevention of Dopaminergic Neuronal Death by Cyclic AMP in Mixed Neuronal/Glial Mesencephalic Cultures Requires the Repression of Presumptive Astrocytes”). […] Compounds according to the invention were evaluated at 50 μM except compound 4bc which was assessed at 100 μM.

Series [2] can be described thus: passage of the blood-brain barrier, IP study: brain extract concentration by HPLC-MS/MS. It is filed as in vivo, Rj Orl: SWISS mice. As to conditions: for concentration at 2 h: male, Rj Orl: SWISS, mouse, brain extract, ip, 70 mg/kg, IP 70 mg/kg, ± SEM. How it is done: Male Rj Orl: SWISS, mice, approximately 5 weeks old and weighing between 20 and 24 g at arrival (R Janvier Breeding Center, France) were kept in the animal room at constant temperature (22±1° C.) and controlled humidity (55±20%), with a 12-hour light/dark cycle (8:00 a.m.-8:00 p.m.). During the acclimation and study period, the mice had free access to food and water. All the experiments were conducted in compliance with the conditions of decree 2001-464 of May 29, 2001 relative to animal experimentation.
Two treatment modes were used: intraperitoneal (IP) administration for 1 or 2 days or oral or per os administration for 5 days.
The solution of compound 4bc to be injected at a concentration of 7.0 g/L was prepared in a carrier containing 10% Tween 20+20% DMSO+70% 0.9% NaCl in water.
Three animal groups were created: • mice who received the carrier by IP at 10 mL/kg (Group V, n=2), • mice treated with compound 4bc by IP at 70 mg/kg and at 10 mL/kg (Group T, n=6), • one untreated mouse that was used as a […] control during analysis.
Treated mice T2 and T3 received treatments as follows:
Treated mice T1, T4, T5 and T6 as well as the mice receiving the carrier V1 and V2 received the treatments/carriers as follows:
The mice were anesthetized by an injection of 0.1 mL of a 6% sodium pentobarbital solution and then the mice were infused to eliminate the compound present in the plasma with a 0.9% NaCl solution containing heparin (200 μL of heparin choay to 5000 IU/mL in one liter of 0.9% NaCl). Each animal was infused with a minimum of 50 mL of this solution. The mouse was then decerebrated and the cerebellum, brainstem and olfactory bulbs were removed by dissection.
For the IP study, the brain was dissected into two parts (right and left hemisphere).
Each mouse brain sample treated with compound 4bc was weighed, placed in MeOH (100 μl MeOH per 10 mg of brain tissue) and then mixed by sonication. The suspensions thus obtained were centrifuged at 14,000 g for 7 minutes at 4° C. for IP or at 27,000 g for 10 minutes, at 4° C. for oral administration. The supernatants, diluted by half in MeOH, were transferred into HPLC vials for analysis of the presence of compound 4bc by HPLC-MS/MS.
Detection and quantification, based on peak area, were done by HPLC-MS/MS in MRM mode.
The HPLC system was composed of a Dionex Ultimate 3000 pump equipped with a Dionex WPS-3000PL automatic sample injector. The mass spectrometer used is a Water-Micromass Quattro Ultima equipped with an electrospray ionization source and a triple quadrupole analyzer. Data was acquired and analyzed by Masslynx 3.5.
Liquid chromatography was performed in isocratic mode with a Nucleodur™ (Macherey-Nagel) C18, 125×2.1 mm column with a particle size of 5.0 μm. The mobile phase was composed of a mixture of two phases A and B, in a proportion of 30/70. Phase A was composed of 1% acetic acid in water (v/v). Phase B was composed of 1% acetic acid in MeOH (v/v). The flow rate was set at 0.2 mL/min; the injection volume was 5 μl.
The mass spectrometer was connected to the HPLC system by using an electrospray ionization source. A switching valve was programmed before injection of the sample for rinsing and equilibration of the capillary, so as to prevent any accumulation of salt in the source capillary. The capillary voltage was set at 4000 V and the cone voltage at 80 V; the source temperature was set at 120° C.; the desolvation gas (N2) was set at a flow rate of 529 and the temperature at 350° C. The mass spectra were obtained in positive mode. The parameters were optimized to obtain the maximum molecular ion ([M+H]^+) at m/z 236.41, corresponding to compound 4bc. Collision was done by argon and the energy was set at 30 eV in MS/MS mode for detecting mass transitions: m/z 236.41→117.08; 236.41→131.10 and 236.41→158.27.

Series [3] is described as follows: influence of time before euthanasia, per os route: brain extract and plasma concentration. Type of series: in vivo, C57BL\6J mice. On the procedure: This study was done on C57BL\6J (instead of RjOrl:SWISS) mice treated with compound 4bc by IP or per os.
Mice treated per os received a treatment of 150 mg/kg to 10 mL/kg of a solution of compound 4bc over 5 days comprising twice daily administrations for 4 days and a once daily administration the last day.

[4] abbreviates: per os 150 mg/kg, approximately 1 h 30 min.
[5] abbreviates: per os 150 mg/kg, approximately 2 h.
Setting [6] is: per os 150 mg/kg, approximately 2 h 25 min.

Structures are written as SMILES. Like-named read-outs stand apart in the source and are kept apart here.

For `Cc1nc2ccc(N)cc2nc1-c1ccccc1` [Compound 4bc], the activity at 100 µM in series [1] came to 139 ± 11%. For the same molecule, the “brain extracts at 4-6 h less concentrated than at 2 h post-treatment” value in series [2] (IP) turned out to be 2000 times. Also, in series [2] (IP), the “elimination from the brain over time” value is “eliminated quickly from the brain”. Moreover, the “mean value of extracts analyzed later lower than previously calculated (ratio of the means)” value in series [2] (IP, 2 h brain extracts, stored at 4° C.) is “approximately 6 times”. Moreover, the “detection in old brain extracts” value in series [2] (IP, euthanized between 4 and 6 h after the last treatment, extracts stored 40 days at 4° C., n=8) is “detectable”. The “crossing of the blood brain barrier in vivo” value in series [2] (intraperitoneal administration) is listed as “able to cross the blood brain barrier”. Further, the concentration at 2 h in series [2] (euthanized 2 h after last treatment, extracts stored 40 days at 4° C., n=4, read-out: mean concentration in old brain extracts) was 1390 ng/mL; in series [2] (euthanized 2 h after the last treatment, n=3, read-out: mean concentration in brain extract), 8830 ng/mL. The molecule further gave a concentration at 1 h in series [3] (C57BL\6J, mouse, brain extract, oral, per os 150 mg/kg over 5 days, approximately 1 h after last treatment) of 2200 ng/mL. Besides, the “crossing of the blood-brain barrier in vivo” value in series [3] (oral administration) was “able to cross the mouse or rat blood-brain barrier”. In addition, the Brain extract concentration in series [3] (per os 150 mg/kg over 5 days, approximately 1 h after last treatment) was 2.2 µg/mL; in series [3] (setting [4]) it was 0.2 µg/mL; in series [3] (setting [5]) it was 0.1 µg/mL; in series [3] (setting [6]) it was 0.05 µg/mL. In addition, the Plasma concentration came out at 11600 ng/mL in series [3] (per os 150 mg/kg, approximately 1 h); 700 ng/mL in series [3] (setting [4]); 40 ng/mL in series [3] (setting [5]); 400 ng/mL in series [3] (setting [6]).
